Measurements as given in patent publication US20260327225A1, “HETEROCYCLIC COMPOUNDS AS TRIGGERING RECEPTOR EXPRESSED ON MYELOID CELLS 2 AGONISTS AND METHODS OF USE” (VIGIL NEUROSCIENCE, INC., priority 2023, published 2026).

The compounds below were run against T1, human TREM2 (Homo sapiens, UniProt Q9NZC2) (assay: TREM2 agonist potency by cellular phosphorylation of Syk (AlphaLisa) in HEK293T-hTREM2 cells expressing human TREM2 and DAP12). Settings: not given.
T1 construct: expressed in transfected cells; host or cells: HEK293T-hTREM2 cells (HEK cell line expressing human TREM2 and DAP12)
T1 sequence (Q9NZC2 19-230): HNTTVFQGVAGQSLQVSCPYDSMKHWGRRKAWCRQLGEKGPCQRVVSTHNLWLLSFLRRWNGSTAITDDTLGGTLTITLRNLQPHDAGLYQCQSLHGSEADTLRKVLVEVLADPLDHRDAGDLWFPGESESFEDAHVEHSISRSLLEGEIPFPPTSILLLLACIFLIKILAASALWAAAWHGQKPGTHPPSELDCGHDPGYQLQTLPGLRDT
T1 sequence (O43914 22-113 partner): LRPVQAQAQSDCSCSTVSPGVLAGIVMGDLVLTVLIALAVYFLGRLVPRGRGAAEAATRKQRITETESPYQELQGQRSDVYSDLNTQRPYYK
Format: cell-based
Protocol: In vitro Measurement of Triggering Receptor Expressed on Myeloid Cells 2 activity using cellular phosphorylation of Spleen Tyrosine Kinase (“Syk”) Assays
Measurement of TREM2 agonist potency was done using a HEK cell line expressing human TREM2 and DAP12 (HEK293T-hTREM2 cells). Binding of small molecules to, and activation of, TREM2 increases the phosphorylation of Syk. The resultant levels of Syk phosphorylation are measured using a commercial AlphaLisa reagent kit. To perform the assay, HEK-hTREM2 cells were plated at 14,000 cells per well in a 384 well plate, in 25 μL of complete growth media and incubated at 37° C., 5% CO2 for 20-24 hours.
Prior to the assay, test compounds were diluted in the 384 well plates in assay buffer and allowed to equilibrate for 30 minutes. Growth media was removed from cell plates by inversion on blotting paper, and 25 μL of test articles in assay buffer was added to cells. Cells were incubated for 45 minutes at room temperature. After 45 minutes, assay buffer was removed and 10 μL of lysis buffer was added. Plates were shaken for 20 minutes at 350 RPM at room temperature. After complete lysis, AlphaLisa reagents were added to the lysate, and fluourescence intensity was measured using a Perkin Elmer Envision plate reader. Intensities were used to generate a standard curve, and % activation was calculated. Curve fitting was performed using Prism v9 software, log(agonist) vs response—variable slope (four parameters), and EC50s were calculated from the curve fit.
The results presented in Table B have been generated with the in vitro assay described above. This assay may be used to test any of the compounds described herein to assess and characterize a compound's ability to act as an agonist of TREM2.

| EC50 | SMILES |
| --- | --- |
| 100 to 500 nM | Cc1cc2c(-n3cccc3)nc(N3C[C@@H](C)O[C@@H](c4cnn(C5CC5)c4)C3)nc2nc1C [Example 67, (2S,6R)-2-(1-cyclopropyl-pyrazol-4-yl)-4-(6,7-dimethyl-4-pyrrol-1-yl-pyrido[2,3-d]pyrimidin-2-yl)-6-methyl-morpholine] |
| < 100 nM | Cc1cc2c(-c3ccccc3)nc(N3C[C@@H](C)O[C@@H](c4cnn(C5CC5)c4)C3)nc2nc1C [Example 68, (2S,6R)-2-(1-cyclopropylpyrazol-4-yl)-4-(6,7-dimethyl-4-phenylpyrido[2,3-d]pyrimidin-2-yl)-6-methyl-morpholine] |

Same assay, conditions: HEK293 cells expressing hTREM2 and DAP12; 45 minutes at room temperature; Syk phosphorylation, AlphaLisa; read-out: hTREM2 EC50

| SMILES | EC50 |
| --- | --- |
| Cc1nc2nc([C@H]3CCO[C@@H](c4cnn(C5CC5)c4)C3)nc(C34CC(C(F)(F)F)(C3)C4)c2cc1-c1cn(C)nn1 [Example 28, 2-((2R,4S)-2-(1-cyclopropyl-1H-pyrazol-4-yl)tetrahydro-2H-pyran-4-yl)-7-methyl-6-(1-methyl-1H-1,2,3-triazol-4-yl)-4-(3-(trifluoromethyl)-bicyclo[1.1.1]pentan-1-yl)pyrido[2,3-d]pyrimidine] | > 500 nM |
| Cc1nc2nc(N3C[C@@H](C)O[C@@H](c4cnn(C5CC5)c4)C3)nc(C3CCC3)c2cc1C#N [Example 42, 4-cyclobutyl-2-((2S,6R)-2-(1-cyclopropyl-1H-pyrazol-4-yl)-6-methylmorpholino)-7-methylpyrido[2,3-d]pyrimidine-6-carbonitrile] | 100 to 500 nM |
| Cc1noc(-c2cc3c(C4CCCCC4)nc(N4CCO[C@@H](c5cnn(C)c5)C4)nc3nc2C)n1 [Example 44, (2S)-4-[4-cyclohexyl-7-methyl-6-(3-methyl-1,2,4-oxadiazol-5-yl)-pyrido [2,3-d]-pyrimidin-2-yl]-2-(1-methyl-pyrazol-4-yl) morpholine] | 100 to 500 nM |
| Cc1nc2nc(N3CCO[C@@H](c4cnn(C)c4)C3)nc(C3CCCCC3)c2cc1C#N [Example 45, 4-cyclohexyl-7-methyl-2-[(2S)-2-(1-methyl-pyrazol-4-yl)morpholin-4-yl]pyrido[2,3-d]pyrimidine-6-carbonitrile] | 100 to 500 nM |
| Cc1cc2c(-c3cccs3)nc(N3C[C@@H](C)O[C@@H](c4cnn(C5CC5)c4)C3)nc2nc1C [Example 69, (2S,6R)-2-(1-cyclopropyl-pyrazol-4-yl)-4-[6,7-dimethyl-4-(2-thienyl)pyrido-[2,3-d]pyrimidin-2-yl]-6-methyl-morpholine] | 100 to 500 nM |
| Cc1nc2nc(N3C[C@@H](C)O[C@@H](c4cnn(C5CC5)c4)C3)nc(C3CCCC3)c2cc1C#N [Example 72, 4-cyclopentyl-2-[(2S,6R)-2-(1-cyclopropyl-pyrazol-4-yl)-6-methyl-morpholin-4-yl]-7-methyl-pyrido[2,3-d]pyrimidine-6-carbonitrile] | < 100 nM |
| Cc1nc2nc(N3C[C@@H](C)O[C@@H](c4cnn(C5CC5)c4)C3)nc(C34CC(C(F)F)(C3)C4)c2cc1C#N [Example 73, 2-((2S,6R)-2-(1-cyclopropyl-1H-pyrazol-4-yl)-6-methylmorpholino)-4-(3-(difluoromethyl)bicyclo[1.1.1]pentan-1-yl)-7-methylpyrido[2,3-d]pyrimidine-6-carbonitrile] | < 100 nM |
| Cc1nc2nc(N3C[C@@H](C)O[C@@H](c4cnn(C5CC5)c4)C3)nc(C34CC(C(F)(F)F)(C3)C4)c2cc1C(F)(F)F [Example 74, (2S,6R)-2-(1-cyclopropyl-1H-pyrazol-4-yl)-6-methyl-4-(7-methyl-6-(trifluoromethyl)-4-(3-(trifluoromethyl)-bicyclo[1.1.1]pentan-1-yl)pyrido[2,3-d]pyrimidin-2-yl)morpholine] | < 100 nM |
| Cc1nc2nc(N3C[C@@H](C)O[C@@H](c4cnn(C5CC5)c4)C3)nc(C34CC(C(F)(F)F)(C3)C4)c2nc1C1COC1 [Example 84, (2S,6R)-2-(1-cyclopropyl-pyrazol-4-yl)-6-methyl-4-[7-methyl-6-(oxetan-3-yl)-4-[3-(trifluoromethyl)-1-bicyclo[1.1.1]pentanyl]-pteridin-2-yl]morpholine] | < 100 nM |
| Cc1nc2nc(N3C[C@@H](C)O[C@@H](c4cnn(C5CC5)c4)C3)nc(C34CC(C(F)(F)F)(C3)C4)c2nc1C1CN(C(=O)OC(C)(C)C)C1 [Example 86, tert-butyl 3-[2-[(2S,6R)-2-(1-cyclopropylpyrazol-4-yl)-6-methyl-morpholin-4-yl]-7-methyl-4-[3-(trifluoromethyl)-1-bicyclo[1.1.1]pentanyl]pteridin-6-yl]azetidine-1-carboxylate] | > 500 nM |
| Cc1nc2nc(N3C[C@@H](C)O[C@@H](c4cnn(C5CC5)c4)C3)nc(C34CC(C(F)(F)F)(C3)C4)c2nc1C1CN(C)C1 [Example 87, (2S,6R)-2-(1-cyclopropylpyrazol-4-yl)-6-methyl-4-[7-methyl-6-(1-methylazetidin-3-yl)-4-[3-(trifluoromethyl)-1-bicyclo[1.1.1]pentanyl]pteridin-2-yl]morpholine] | 100 to 500 nM |
| Cc1nc2nc(N3C[C@@H](C)O[C@@H](c4cnn(C5CC5)c4)C3)nc(-c3ccc(C#N)cc3F)c2nc1C [Example 91, 4-[2-[(2S,6R)-2-(1-cyclopropylpyrazol-4-yl)-6-methyl-morpholin-4-yl]-6,7-dimethylpteridin-4-yl]-3-fluoro-benzonitrile] | < 100 nM |
| Cc1nc2nc(C3CCOC(c4ccn5nccc5c4)C3)nc(-c3ccc(F)cc3F)c2nc1C (stereo not shown) [Example 93, 4-(2,4-difluorophenyl)-6,7-dimethyl-2-(2-pyrazolo[1,5-a]pyridin-5-yltetrahydropyran-4-yl)pteridine] | < 100 nM |

The next lines start with the values.

| EC50 | SMILES |
| --- | --- |
| < 100 nM | Cc1nc2nc([C@H]3CCO[C@@H](c4cnn(C5CC5)c4)C3)nc(C34CC(C(F)(F)F)(C3)C4)c2cc1C#N [Example 29, 2-[(2R,4S)-2-(1-cyclopropylpyrazol-4-yl)tetrahydropyran-4-yl]-7-methyl-4-[3-(trifluoromethyl)-1-bicyclo[1.1.1]pentanyl]pyrido[2,3-d]pyrimidine-6-carbonitrile] |
| < 100 nM | Cc1nc2nc([C@H]3CCO[C@@H](c4cnn(C5CC5)c4)C3)nc(C34CC(C(F)(F)F)(C3)C4)c2cc1S(C)(=O)=O [Example 31, 2-[(2R,4S)-2-(1-cyclopropylpyrazol-4-yl)tetrahydropyran-4-yl]-7-methyl-6-methylsulfonyl-4-[3-(trifluoromethyl)-1-bicyclo[1.1.1]pentanyl]pyrido[2,3-d]pyrimidine] |
| < 100 nM | Cc1nc2nc([C@H]3CCO[C@@H](c4cnn(C5CC5)c4)C3)nc(C34CC(C(F)(F)F)(C3)C4)c2cc1[S+](C)[O-] (stereo partly drawn) [Example 32, 2-[(2R,4S)-2-(1-cyclopropylpyrazol-4-yl)tetrahydropyran-4-yl]-7-methyl-6-methylsulfinyl-4-[3-(trifluoromethyl)-1-bicyclo[1.1.1]pentanyl]pyrido[2,3-d]pyrimidine] |
| < 100 nM | Cc1noc(-c2cc3c(C4CCCCC4)nc(N4C[C@@H](C)O[C@@H](c5cnn(C6CC6)c5)C4)nc3nc2C)n1 [Example 33, (2S,6R)-4-[4-cyclohexyl-7-methyl-6-(3-methyl-1,2,4-oxadiazol-5-yl)-pyrido[2,3-d]pyrimidin-2-yl]-2-(1-cyclopropylpyrazol-4-yl)-6-methyl-morpholine] |
| < 100 nM | Cc1nc2nc(N3C[C@@H](C)O[C@@H](c4cnn(C5CC5)c4)C3)nc(C3CCCCC3)c2cc1C#N [Example 35, 4-cyclohexyl-2-[(2S,6R)-2-(1-cyclopropylpyrazol-4-yl)-6-methyl-morpholin-4-yl]-7-methyl-pyrido[2,3-d]pyrimidine-6-carbonitrile] |
| < 100 nM | Cc1cc([C@H]2CN(c3nc(C4CCCCC4)c4cc(C#N)c(C)nc4n3)CCO2)cnn1 [Example 46, 4-cyclohexyl-7-methyl-2-[2-(6-methyl-pyridazin-4-yl)morpholin-4-yl]-pyrido[2,3-d]pyrimidine-6-carbonitrile] |
| < 100 nM | Cc1cc2c(C3CCCC3)nc(N3C[C@@H](C)O[C@@H](c4cnn(C5CC5)c4)C3)nc2nc1C [Example 65, (2S,6R)-4-(4-cyclopentyl-6,7-dimethylpyrido[2,3-d]pyrimidin-2-yl)-2-(1-cyclopropylpyrazol-4-yl)-6-methylmorpholine] |
| < 100 nM | Cc1nc2nc(N3C[C@@H](C)O[C@@H](c4cnn(C(F)F)c4)C3)nc(C34CC(C(F)(F)F)(C3)C4)c2cc1C#N [Example 66, 2-[(2S,6R)-2-[1-(difluoromethyl)pyrazol-4-yl]-6-methyl-morpholin-4-yl]-7-methyl-4-[3-(trifluoromethyl)-1-bicyclo[1.1.1]pentanyl]pyrido[2,3-d]pyrimidine-6-carbonitrile] |
| < 100 nM | Cc1nc2nc(N3C[C@@H](C)O[C@@H](c4cnn(CC(F)F)c4)C3)nc(C34CC(C(F)(F)F)(C3)C4)c2cc1C#N [Example 70, 2-((2S,6R)-2-(1-(2,2-difluoroethyl)-1H-pyrazol-4-yl)-6-methyl-morpholino)-7-methyl-4-(3-(trifluoromethyl)bicyclo[1.1.1]pentan-1-yl)pyrido[2,3-d]pyrimidine-6-carbonitrile] |
| < 100 nM | COCn1cc([C@H]2CN(c3nc(C45CC(C(F)(F)F)(C4)C5)c4cc(C#N)c(C)nc4n3)C[C@@H](C)O2)cn1 [Example 71] |
